From PMC2990348 (Journal of medicinal chemistry, 2010)

Test system: poliovirus
Format: cell-based

| SMILES | Frequency of viral mutagenesis compared to ribavirin |
| --- | --- |
| Cc1ncnc2c1ncn2[C@@H]1O[C@H](CO)[C@@H](O)[C@H]1O [Compound 2, 6-methyl-9-β-D-ribofuranosylpurine, reference compound] | neither 6 nor 2 increased the frequency of viral mutagenesis |
| Cc1ncnc2c1ccn2[C@@H]1O[C@H](CO)[C@@H](O)[C@H]1O [Compound 6, 4-Methyl-7-β-D-ribofuranosylpyrrolo[2,3-d]pyrimidine] | neither 6 nor 2 increased the frequency of viral mutagenesis |
